In patent EP0029082B1, “1-Benzylated ergometrine derivatives, process for their preparation and pharmaceutical compositions containing them” (VEB Arzneimittelwerk Dresden, priority 1979, dated 1981):

Tested on: Serotoninödem an der Ratte
Experiment: Antiserotonin effect on serotonin-induced oedema in the rat (set-up according to Winter, Risley and Nuss)
Assay type: in vivo
Conditions: dose 0,005 mg/kg i. p., mean inhibition versus control group, values statistically significant for A and B; for prozentuale Hemmung nach Serotoningabe (%) nach 30 min: 30 min after serotonin; for prozentuale Hemmung nach Serotoningabe (%) nach 90 min: 90 min after serotonin; for prozentuale Hemmung nach Serotoningabe (%) nach 150 min: 150 min after serotonin; for prozentuale Hemmung nach Serotoningabe (%) nach 210 min: 210 min after serotonin; for prozentuale Hemmung nach Serotoningabe (%) nach 270 min: 270 min after serotonin

Compound	prozentuale Hemmung nach Serotoningabe (%) nach 30 min	prozentuale Hemmung nach Serotoningabe (%) nach 90 min	prozentuale Hemmung nach Serotoningabe (%) nach 150 min	prozentuale Hemmung nach Serotoningabe (%) nach 210 min	prozentuale Hemmung nach Serotoningabe (%) nach 270 min
C[C@@H](CO)NC(=O)[C@@H]1C=C2c3cccc4c3c(cn4Cc3cccc(F)c3)C[C@H]2N(C)C1 [Verb. A, 1-(3'-Fluorbenzyl)-ergometrindimaleinat]	44%	50%	36%	55%	56%
CC[C@@H](CO)NC(=O)[C@@H]1C=C2c3cccc4c3c(cn4C)C[C@H]2N(C)C1 [Methysergid, reference compound]	68%	60%	36%	34%	46%
C[C@@H](CO)NC(=O)[C@@H]1C=C2c3cccc4c3c(cn4Cc3ccc(Cl)cc3)C[C@H]2N(C)C1 [Verb. B, 1-(4'-Chlorbenzyl)-ergometrindimaleinat]	44%	45%	46%	61%	58%
